Measured values as given in the supplement of paper PMC10307832.

compound: COC1=CC=C(C=C1)CN2C=CC3=C2C=C(C=C3)C(=O)NO; experiment: relative viability (nuclei count vs DMSO), 5 days (fraction); higher = more cells survive; conditions: 0.08 µM
Outline: (§1)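 Lung cancer cell lines received five library-drug doses (not always all listed) spaced by √10, pinned on vehicle-anchored 1536-well plates after an overnight stay at 37 °C. Five days later, with no medium change, nuclei were Hoechst-stained, imaged at 4× and counted with MetaXpress. Viability is treated-well nuclei relative to vehicle-well nuclei, as a median across plates. Passing plates had control CV below 25% and at least one doubling.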

| Cell Line | relative viability |
| --- | --- |
| EMC-BAC-2 | 0.88 |
| IA-LM | 0.91 |
| NCI-H2009 | 0.926 |
| COR-L 105 | 0.679 |
| NCI-H1395 | 0.752 |
| NCI-H520 | 0.708 |
| HCC-78 | 0.803 |
| EKVX | 0.782 |
| EBC-1 | 0.71 |
| NCI-H1299 | 1.01 |
| NCI-H1650 | 0.787 |
| EPLC-272H | 0.753 |
| PC-14 | 0.84 |
| LC-2-ad | 0.937 |
| A549 | 0.905 |
| NCI-H1651 | 0.918 |
| COR-L23 | 0.874 |
| HCC-827 | 1.06 |
| RERF-LC-KJ | 0.956 |
| NCI-H1563 | 0.843 |
| NCI-H3122 | 0.971 |
| BEN | 1.03 |
| UMC-11 | 0.711 |
| NCI-H2085 | 1.01 |
| NCI-H727 | 0.853 |

same assay, conditions: 0.253 µM

| Cell Line | relative viability |
| --- | --- |
| HCC-15 | 0.965 |
| NCI-H460 | 1 |
| IA-LM | 0.949 |
| NCI-H2009 | 0.978 |
| COR-L 105 | 0.928 |
| NCI-H1395 | 0.915 |
| NCI-H520 | 1.04 |
| NCI-H358 | 0.945 |
| HCC-78 | 0.876 |
| EKVX | 1.02 |
| EBC-1 | 0.931 |
| NCI-H1299 | 1.04 |
| NCI-H1650 | 0.87 |
| EPLC-272H | 0.871 |
| LK-2 | 1.03 |
| PC-14 | 0.939 |

| Cell Line | relative viability |
| --- | --- |
| LXF-289 | 1.01 |
| LC-2-ad | 0.977 |
| A549 | 1.01 |
| NCI-H1651 | 0.963 |
| COR-L23 | 0.992 |
| HCC-827 | 0.935 |
| RERF-LC-KJ | 1.03 |
| NCI-H1563 | 1.09 |
| NCI-H3122 | 0.984 |
| BEN | 0.986 |
| UMC-11 | 0.965 |
| LCLC-97TM1 | 1.03 |
| NCI-H2085 | 0.991 |
| A-427 | 0.98 |
| NCI-H727 | 0.941 |
| NCI-H838 | 1.01 |

same assay, conditions: 0.8 µM

| Cell Line | relative viability |
| --- | --- |
| HCC-15 | 1.11 |
| NCI-H460 | 0.994 |
| EMC-BAC-2 | 1.08 |
| IA-LM | 1.03 |
| NCI-H2009 | 1.01 |
| COR-L 105 | 0.936 |
| NCI-H1395 | 0.877 |
| NCI-H520 | 1.03 |
| NCI-H358 | 1.09 |
| HCC-78 | 1.01 |
| EKVX | 0.991 |
| EBC-1 | 1.04 |
| NCI-H1299 | 1.03 |
| NCI-H1650 | 1.01 |
| EPLC-272H | 1 |
| LK-2 | 1.07 |
| PC-14 | 0.998 |

| Cell Line | relative viability |
| --- | --- |
| LXF-289 | 1 |
| LC-2-ad | 1.04 |
| A549 | 0.953 |
| NCI-H1651 | 0.969 |
| COR-L23 | 1 |
| HCC-827 | 0.997 |
| RERF-LC-KJ | 0.984 |
| NCI-H1563 | 0.955 |
| NCI-H3122 | 0.954 |
| BEN | 0.936 |
| UMC-11 | 1.02 |
| LCLC-97TM1 | 1.02 |
| NCI-H2085 | 1.04 |
| A-427 | 1.01 |
| NCI-H727 | 0.899 |
| NCI-H838 | 0.964 |

same assay, conditions: 2.53 µM

| Cell Line | relative viability |
| --- | --- |
| HCC-15 | 1.01 |
| NCI-H460 | 0.992 |
| EMC-BAC-2 | 0.979 |
| IA-LM | 1.08 |
| NCI-H2009 | 0.993 |
| COR-L 105 | 0.799 |
| NCI-H1395 | 0.963 |
| NCI-H520 | 1.04 |
| NCI-H358 | 0.976 |
| HCC-78 | 1.02 |
| EKVX | 1.05 |
| EBC-1 | 0.987 |
| NCI-H1299 | 1.02 |
| NCI-H1650 | 0.946 |
| EPLC-272H | 0.974 |
| LK-2 | 0.992 |
| PC-14 | 1.01 |

| Cell Line | relative viability |
| --- | --- |
| LXF-289 | 0.992 |
| LC-2-ad | 0.976 |
| A549 | 0.986 |
| NCI-H1651 | 0.91 |
| COR-L23 | 1.01 |
| HCC-827 | 1.03 |
| RERF-LC-KJ | 1.03 |
| NCI-H1563 | 0.968 |
| NCI-H3122 | 0.989 |
| BEN | 0.976 |
| UMC-11 | 0.907 |
| LCLC-97TM1 | 0.942 |
| NCI-H2085 | 0.996 |
| A-427 | 0.952 |
| NCI-H727 | 0.983 |
| NCI-H838 | 0.98 |

same assay, conditions: 8 µM

| Cell Line | relative viability |
| --- | --- |
| HCC-15 | 0.935 |
| NCI-H460 | 0.968 |
| EMC-BAC-2 | 0.873 |
| IA-LM | 0.868 |
| NCI-H2009 | 0.913 |
| COR-L 105 | 0.565 |
| NCI-H1395 | 0.753 |
| NCI-H520 | 0.97 |
| NCI-H358 | 0.746 |
| HCC-78 | 0.917 |
| EKVX | 0.957 |
| EBC-1 | 0.923 |
| NCI-H1299 | 0.99 |
| NCI-H1650 | 0.689 |
| EPLC-272H | 0.766 |
| LK-2 | 0.949 |
| PC-14 | 0.904 |

| Cell Line | relative viability |
| --- | --- |
| LXF-289 | 0.992 |
| LC-2-ad | 0.963 |
| A549 | 0.895 |
| NCI-H1651 | 0.926 |
| COR-L23 | 0.933 |
| HCC-827 | 0.97 |
| RERF-LC-KJ | 0.969 |
| NCI-H1563 | 0.908 |
| NCI-H3122 | 0.955 |
| BEN | 0.856 |
| UMC-11 | 0.964 |
| LCLC-97TM1 | 0.887 |
| NCI-H2085 | 0.968 |
| A-427 | 0.806 |
| NCI-H727 | 0.927 |
| NCI-H838 | 0.871 |

compound: C[C@]1(c2nc3c(C(N)=O)cccc3[nH]2)CCCN1 [Veliparib]; experiment: as above; conditions: 0.02 µM
Outline: as §1

| Cell Line | relative viability |
| --- | --- |
| HCC-15 | 0.89 |
| NCI-H460 | 0.93 |
| EMC-BAC-2 | 1.01 |
